From PubChem BioAssay (NCI) come the findings set out here.

“And” between values parts separate entries of the source, which are not always exact repeats. Equal entries are not always repeated.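 Method: 48-hour compound exposure of cells in 96-well plates, five concentrations, linear interpolation of endpoints. The concentration for full growth arrest is given as TGI.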

Some test systems named below: XF 498 CNS; SN12K1 renal; KM20L2 colon; MDA-N; DMS 114 small cell lung; SNB-78 CNS; DLD-1 colon; P388 leukemia; RXF-631 renal; LXFL 529 NSCLC; DMS 273 small cell lung.
Common to all, as to assay: NCI tumour cell line growth inhibition, 48 h

With `COc1cc(C2c3cc4c(cc3[C@@H](Nc3ccc(C#N)cc3)C3COC(=O)[C@H]23)OCO4)cc(OC)c1O` (some centres not stated), the TGI was 22.8 µM in the assay with XF 498 CNS; 3.94 µM with SN12K1 renal; 75 µM in the assay with KM20L2 colon; 18.7 µM and > 100 µM in the assay on MDA-N; 4.14 µM in the assay on DMS 114 small cell lung; 75 µM in the assay on SNB-78 CNS. Further, the TGI stood at 3.51 µM in the assay with DLD-1 colon and 0.832 µM in the assay with P388 leukemia.
For `CNC(=O)OCc1nc(SC2CCCCO2)n(C)c1COC(=O)NC` (configuration not stated), the TGI with RXF-631 renal, in the assay with XF 498 CNS, with SN12K1 renal, in the assay with KM20L2 colon, with DMS 114 small cell lung and with SNB-78 CNS was over 100 µM in each case. Besides, the TGI with LXFL 529 NSCLC, in the assay with DLD-1 colon, in the assay with P388 leukemia and in the assay with DMS 273 small cell lung was over 100 µM throughout.
As for `CCN(CC)CCn1ccc(=O)c2cc3c(=O)ccn(CCN(CC)CC)c3c(C)c21`, the TGI with RXF-631 renal is 21.5 µM; with XF 498 CNS, 21.4 µM; with KM20L2 colon, 15.4 µM; with MDA-N, 18 µM; with DMS 114 small cell lung it was 27.6 µM; with SNB-78 CNS, 26.9 µM. In addition, the TGI in the assay on LXFL 529 NSCLC amounted to 16.5 µM; in the assay with DLD-1 colon, 7.83 µM; with DMS 273 small cell lung, 15.1 µM.
